Assay [1] addresses T1, cGMP-dependent protein kinase 1 (Homo sapiens) (UniProt Q13976).
T1 sequence (whole entry): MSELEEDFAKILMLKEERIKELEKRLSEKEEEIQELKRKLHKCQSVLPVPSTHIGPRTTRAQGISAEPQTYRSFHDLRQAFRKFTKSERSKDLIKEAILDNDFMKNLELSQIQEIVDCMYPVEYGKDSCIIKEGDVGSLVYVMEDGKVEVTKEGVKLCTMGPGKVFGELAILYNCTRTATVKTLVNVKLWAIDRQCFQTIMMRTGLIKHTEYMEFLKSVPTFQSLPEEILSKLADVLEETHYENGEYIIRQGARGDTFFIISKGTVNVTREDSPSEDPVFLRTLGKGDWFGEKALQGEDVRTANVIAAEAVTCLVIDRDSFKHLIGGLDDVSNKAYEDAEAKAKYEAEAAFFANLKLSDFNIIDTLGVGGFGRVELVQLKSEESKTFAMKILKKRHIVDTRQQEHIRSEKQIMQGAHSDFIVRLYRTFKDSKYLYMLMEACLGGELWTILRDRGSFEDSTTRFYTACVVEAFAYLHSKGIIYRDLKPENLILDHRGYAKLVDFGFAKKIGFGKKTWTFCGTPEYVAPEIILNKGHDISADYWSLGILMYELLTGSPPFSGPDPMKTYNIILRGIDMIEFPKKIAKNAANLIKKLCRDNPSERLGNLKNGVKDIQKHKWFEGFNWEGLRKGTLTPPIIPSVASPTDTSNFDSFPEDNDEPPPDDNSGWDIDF
As to the kind of experiment: Selectivity interaction (Ambit KINOMEscan and KiNATiv profiling in Jurkat cells) EUB0000090b PRKG1. The following applies: at 1 µM. In kind it is cell-based.

Assay [2] addresses T2, Ephrin type-A receptor 3 (Homo sapiens) (UniProt P29320).
T2 sequence (whole entry): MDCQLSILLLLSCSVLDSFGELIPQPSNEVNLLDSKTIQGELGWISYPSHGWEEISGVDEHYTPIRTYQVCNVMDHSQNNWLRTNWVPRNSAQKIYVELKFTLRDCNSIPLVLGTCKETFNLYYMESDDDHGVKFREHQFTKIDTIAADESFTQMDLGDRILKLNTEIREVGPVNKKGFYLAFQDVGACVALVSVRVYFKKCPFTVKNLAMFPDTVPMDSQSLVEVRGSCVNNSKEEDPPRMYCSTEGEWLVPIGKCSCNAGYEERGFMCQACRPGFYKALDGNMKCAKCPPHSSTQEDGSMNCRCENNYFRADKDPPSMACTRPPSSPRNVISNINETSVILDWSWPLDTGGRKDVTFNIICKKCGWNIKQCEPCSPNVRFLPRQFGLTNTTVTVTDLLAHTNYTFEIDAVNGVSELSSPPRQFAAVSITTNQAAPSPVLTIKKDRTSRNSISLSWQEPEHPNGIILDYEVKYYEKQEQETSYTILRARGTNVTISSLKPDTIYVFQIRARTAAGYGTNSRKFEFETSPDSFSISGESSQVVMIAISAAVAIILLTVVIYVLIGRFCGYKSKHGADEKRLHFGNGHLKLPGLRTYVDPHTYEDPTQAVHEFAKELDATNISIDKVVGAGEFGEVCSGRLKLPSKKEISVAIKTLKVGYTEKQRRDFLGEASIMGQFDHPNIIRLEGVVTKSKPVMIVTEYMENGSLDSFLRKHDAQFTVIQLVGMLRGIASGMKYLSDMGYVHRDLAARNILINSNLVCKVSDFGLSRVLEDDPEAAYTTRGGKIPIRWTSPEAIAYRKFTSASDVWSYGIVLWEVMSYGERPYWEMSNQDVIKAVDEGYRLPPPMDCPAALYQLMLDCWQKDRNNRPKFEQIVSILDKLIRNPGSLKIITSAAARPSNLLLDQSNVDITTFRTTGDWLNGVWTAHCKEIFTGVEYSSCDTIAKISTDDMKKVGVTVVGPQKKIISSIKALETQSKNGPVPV
As to the kind of experiment: Selectivity interaction (KinomeScan (DiscoverX)) EUB0000092b EPHA3. The following applies: at 10 µM.

Assay [3] concerns the target Serine/threonine-protein kinase NIM1 (Homo sapiens, UniProt Q8IY84). Description: Selectivity interaction (KinomeScan (DiscoverX)) EUB0001049a NIM1K. Particulars: at 1 µM.
The target of assay [4] is T3, Serine/threonine-protein kinase ULK2 (Homo sapiens) (UniProt Q8IYT8).
T3 sequence (whole entry): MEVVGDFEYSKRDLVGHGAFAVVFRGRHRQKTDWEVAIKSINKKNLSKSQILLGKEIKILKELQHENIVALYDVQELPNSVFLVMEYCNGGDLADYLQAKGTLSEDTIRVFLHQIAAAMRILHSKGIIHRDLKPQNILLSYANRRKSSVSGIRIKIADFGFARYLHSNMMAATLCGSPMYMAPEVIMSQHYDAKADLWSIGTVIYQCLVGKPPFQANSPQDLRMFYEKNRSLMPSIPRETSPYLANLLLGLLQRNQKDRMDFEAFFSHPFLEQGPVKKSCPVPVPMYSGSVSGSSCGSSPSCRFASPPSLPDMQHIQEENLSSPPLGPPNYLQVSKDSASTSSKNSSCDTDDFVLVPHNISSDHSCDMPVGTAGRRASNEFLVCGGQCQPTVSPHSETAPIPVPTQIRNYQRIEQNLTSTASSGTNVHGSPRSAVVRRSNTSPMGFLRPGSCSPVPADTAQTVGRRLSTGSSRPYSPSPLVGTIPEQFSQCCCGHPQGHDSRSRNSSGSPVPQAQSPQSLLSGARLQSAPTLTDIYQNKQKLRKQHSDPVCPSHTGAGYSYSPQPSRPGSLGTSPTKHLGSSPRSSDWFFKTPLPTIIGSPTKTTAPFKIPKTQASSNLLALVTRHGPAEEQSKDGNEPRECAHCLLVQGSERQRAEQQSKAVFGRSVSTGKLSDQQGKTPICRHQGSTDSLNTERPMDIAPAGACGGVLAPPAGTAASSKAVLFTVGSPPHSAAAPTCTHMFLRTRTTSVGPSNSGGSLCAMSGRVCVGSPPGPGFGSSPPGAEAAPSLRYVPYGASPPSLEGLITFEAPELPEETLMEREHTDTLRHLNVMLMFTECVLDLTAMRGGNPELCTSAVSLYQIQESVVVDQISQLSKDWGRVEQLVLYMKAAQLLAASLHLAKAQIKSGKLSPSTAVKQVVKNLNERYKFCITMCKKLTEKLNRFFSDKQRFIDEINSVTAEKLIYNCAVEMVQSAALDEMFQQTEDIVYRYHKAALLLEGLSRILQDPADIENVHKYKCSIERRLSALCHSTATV
As to the kind of experiment: Selectivity interaction (KinomeScan (DiscoverX)) EUB0000595a ULK2. The following applies: at 10 µM.

Serine/threonine-protein kinase NIM1, sequence (Q8IY84 whole entry): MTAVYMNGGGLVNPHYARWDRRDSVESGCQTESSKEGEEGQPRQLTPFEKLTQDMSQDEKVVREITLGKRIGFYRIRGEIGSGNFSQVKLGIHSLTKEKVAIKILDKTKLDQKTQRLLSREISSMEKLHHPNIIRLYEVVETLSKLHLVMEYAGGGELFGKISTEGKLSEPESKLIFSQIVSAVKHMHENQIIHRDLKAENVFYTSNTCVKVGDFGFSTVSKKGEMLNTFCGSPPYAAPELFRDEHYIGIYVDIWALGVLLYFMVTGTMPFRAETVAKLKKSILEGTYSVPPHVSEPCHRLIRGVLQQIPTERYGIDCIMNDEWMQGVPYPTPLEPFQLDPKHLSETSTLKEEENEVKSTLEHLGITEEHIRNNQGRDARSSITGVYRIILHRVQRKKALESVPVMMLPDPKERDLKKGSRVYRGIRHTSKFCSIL

Turning to `CN(C)C/C=C/C(=O)Nc1ccc(C(=O)N2CCCC(Nc3ncc(Cl)c(-c4c[nH]c5ccccc45)n3)C2)cc1` (centres undefined), the % of control in assay [1] was 97%. For the compound `CCC(=O)N1CCN(c2ccc(-n3c(=O)ccc4cnc5ccc(-c6cnc7ccccc7c6)cc5c43)cc2C(F)(F)F)CC1`, the % of control in assay [2] was 70%. Turning to `COc1cc(Nc2nc(C)cc(-c3cnn4nc(OC)ccc34)n2)cc(C(F)(F)F)c1`, the % of control in assay [3] turned out to be 94%. For `COCC(=O)NC/C=C/c1ccc2ncnc(Nc3ccc(Oc4ccc(C)nc4)c(C)c3)c2c1` [CP-724714], the % of control in assay [4] was found to be 100%.

Source of the values: ChEMBL document CHEMBL5465560, “Selectivity Literature for EUbOPEN Chemogenomic Library” (2024).
